Data: PMC4594923, “Food Polyphenols Fail to Cause a Biologically Relevant Reduction of COX-2 Activity” (PLoS ONE, 2015)
Entries after “also recorded” stand apart in the source; their conditions may differ. Marks after values point to notes of the source that are not given here.

What was measured:
[1] = clinical chemistry in plasma (urea, creatinine, AST, ALT, LDH) in LPS induced sepsis in mice; assay type: in vivo, C57BL/6N mice; details: compound i. p. 100 mg/kg bw 2 h before LPS, 24 h after LPS
IL–6 = assay: kidney IL–6 mRNA (qPCR) in LPS induced sepsis in mice; assay type: in vivo, C57BL/6N mice; details: compound i. p. 100 mg/kg bw 2 h before LPS, 24 h after LPS
Procedure: (§1) Samples were stored at -80°C till further analysis. […] Plasma was generated by centrifugation at 4000 g at 4°C and stored at -80°C till further analysis.
(§2) Tissue sections were stored in RNA-later immediately after organ retrieval. Total RNA was extracted using the RNeasy mini kit system (Qiagen, Hilden, Germany) and transcribed using Superscript II Reverse transcriptase (Invitrogen). Quantitative (q) PCR was performed on […] (Roche Diagnostics, Penzberg, Germany) using FastStart Sybr-Green chemistry. Gene-specific primers for IL–6 (Quantitec QT00098875, Qiagen) and MCP–1 (Quantitec QT00167832, Qiagen) were used for the gene of interest and HPRT served as house keeping gene for normalization (Quantitec QT00166768, Qigaen). Quantification was carried out using qgene software.

[2] = test system: arachidonic acid (AA) cascade; assay: plasma oxylipin/PG levels in LPS induced sepsis in mice;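 further: male C57BL/6N mice given LPS, plasma oxylipins quantified by LC-MS after solid-phase extraction, pretreatment or vehicle given intraperitoneally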; assay type: in vivo, C57BL/6N mice; details: mice, 24 h after LPS, vs. LPS group
MCP–1 = assay: kidney MCP–1 mRNA (qPCR) in LPS induced sepsis in mice; assay type: in vivo, C57BL/6N mice; details: compound i. p. 100 mg/kg bw 2 h before LPS, 24 h after LPS, vs. LPS group
Procedure: as §1, §2

[3] = test system: arachidonic acid (AA) cascade; assay: kidney tissue oxylipin/PG levels in LPS induced sepsis in mice;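 further: male C57BL/6N mice challenged with LPS, kidney taken 24 h later, oxylipins quantified by LC-MS after solid-phase extraction of tissue homogenate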
[4] = compound i. p. 100 mg/kg bw 2 h before LPS (10 mg/kg bw i. p.)
[5] = kidney tissue 24 h after LPS treatment, LPS +, mean
[6] = kidney tissue 24 h after LPS treatment, LPS +, mean, < = below LOQ
[7] = mice, compound i. p. 100 mg/kg bw 2 h before LPS, 24 h after LPS, vs. LPS group

In the case of Cc1ccc(-c2cc(C(F)(F)F)nn2-c2ccc(S(N)(=O)=O)cc2)cc1 [celecoxib, reference compound], the “plasma ALT activity” value [1] is reported as “elevated; also recorded: moderate elevation”, the “plasma AST activity” value [1] is reported as “elevated; also recorded: moderate elevation” and the “plasma LDH activity” value [1] is reported as “moderate elevation”. For the same molecule, the plasma creatinine level [1] was “elevation”, the plasma urea level [1] was “elevation” and the “further increase of kidney IL–6 mRNA expression in comparison to LPS group” value (IL–6) was 9 fold. The “plasma 6-keto-PGF1α level” value [2, 4] was “below the limit of quantification; also recorded: decreased”, the “plasma 13,14-dihydro-15-keto-PGE1 level” value [2, 4] was “below the limit of quantification; also recorded: decreased” and the “plasma 13,14-dihydro-15-keto-PGF2α level” value [2, 4] was “massively decreased”. The “plasma PG levels (LPS induced PG increase)” value [2, 4] was “effectively attenuated; also recorded: reduced”, the “plasma PGE2 level” value [2, 4] was “massively decreased” and the “plasma PGF2α level” value [2, 4] was “below the limit of quantification”. For the same molecule, the “plasma epoxy- and dihydroxy-fatty acid (FA) metabolites of the CYP pathway” value ([2]; compound i. p. 100 mg/kg bw 2 h before LPS) was “decreased”, the “kidney MCP–1 mRNA levels” value (MCP–1) was “did not affect” and the “1a,1b-dihomo-PGF2α” value [3, 5] was 0.54^* nM. For the same molecule, the “4,5-DiHDPE” value [3, 5] was 22^‡ nM, the 4-HDHA [3, 5] was 21 nM and the “5(6)-EpETrE” value [3, 5] was 130^† nM. For the same molecule, the “5,6-DiHETrE” value [3, 5] was 2.1^‡ nM, the 5-HEPE [3, 5] was 1.5^‡ nM and the 5-HETE [3, 5] was 16^‡ nM. For the same molecule, the 5-oxo-ETE [3, 5] was 31 nM, the 6-keto-PGF1α [3, 5] was 36 nM and the “7,8-DiHDPE” value [3, 5] was 1.9 nM. The 7-HDHA [3, 5] was 4.8^‡ nM, the “8(9)-EpETrE” value [3, 5] was 30^† nM and the “8,9-DiHETrE” value [3, 5] was 1.7 nM. For the same molecule, the 8-HDHA [3, 5] was 24^‡ nM, the 8-HETE [3, 5] was 4.6 nM and the 8-iPF2a [3, 5] was 1.2 nM. The “9(10)-EpOME” value [3, 5] was 160^* nM, the “9(10)-Epoxystearic acid” value [3, 5] was 81^† nM and the “9,10,13-TriHOME” value [3, 5] was 4.1 nM. For the same molecule, the “9,10-DiHODE” value [3, 5] was 1.3 nM, the “9,10-DiHOME” value [3, 5] was 17^* nM and the “9,10-Dihydroxystearic acid” value [3, 5] was 58 nM. For the same molecule, the “9,12,13-TriHOME” value [3, 5] was 24 nM, the 9-HETE [3, 5] was 4.0^* nM and the 9-HODE [3, 5] was 160 nM. For the same molecule, the 9-HOTrE [3, 5] was 4.3 nM, the 9-oxo-ODE [3, 5] was 51 nM and the “10(11)-EpDPE” value [3, 5] was 70^‡ nM. The “10,11-DiHDPE” value [3, 5] was 2.0 nM, the 10-HDHA [3, 5] was 4.3 nM and the “11(12)-EpETE” value [3, 5] was 3.5^* nM. For the same molecule, the “11(12)-EpETrE” value [3, 5] was 77^† nM, the “11,12-DiHETrE” value [3, 5] was 1.7^* nM and the 11-HDHA [3, 5] was 6.6^* nM. The 11-HETE [3, 5] was 10 nM, the “12(13)-EpOME” value [3, 5] was 120^† nM and the “12,13-DiHOME” value [3, 5] was 28^† nM. For the same molecule, the 12-HEPE [3, 5] was 2.9 nM, the 12-HETE [3, 5] was 29 nM and the “13(14)-EpDPE” value [3, 5] was 55^† nM. For the same molecule, the “13,14-DiHDPE” value [3, 5] was 1.5^‡ nM, the “13,14-dihydro-15-keto-PGF2α” value [3, 5] was 0.72^† nM and the 13-HDHA [3, 5] was 6.0 nM. It also gave a 13-HODE [3, 5] of 140 nM, a 13-HOTrE [3, 5] of 5.2 nM and a 13-oxo-ODE [3, 5] of 9.2 nM. For the same molecule, the “14(15)-EpETE” value [3, 5] was 4.2^* nM, the “14(15)-EpETrE” value [3, 5] was 57^† nM and the “14,15-DiHETE” value [3, 5] was 0.34^‡ nM. The “14,15-DiHETrE” value [3, 5] was 3.3^‡ nM, the 14-HDHA [3, 5] was 17 nM and the “15(16)-EpODE” value [3, 5] was 55 nM. For the same molecule, the “15(S)-HETrE” value [3, 5] was 4.0 nM, the “15,16-DiHODE” value [3, 5] was 21 nM and the 15-HETE [3, 5] was 19 nM. For the same molecule, the 15-oxo-ETE [3, 5] was 8.4 nM, the “16(17)-EpDPE” value [3, 5] was 52^‡ nM and the “16,17-DiHDPE” value [3, 5] was 2.8^‡ nM. The 16-HDHA [3, 5] was 6.1 nM, the “17,18-DiHETE” value [3, 5] was 2.1^‡ nM and the 18-HEPE [3, 5] was 1.3 nM. For the same molecule, the “19(20)-EpDPE” value [3, 5] was 78^* nM, the “19,20-DiHDPE” value [3, 5] was 29^‡ nM and the 20-HDHA [3, 5] was 18 nM. It also gave a 20-HEPE [3, 5] of 5.3 nM, an EKODE [3, 5] of 41 nM and a PGD2 [3, 5] of 7.4 nM. For the same molecule, the PGE1 [3, 5] was 2.5 nM, the PGE2 [3, 5] was 45 nM and the PGF1α [3, 5] was 1.4^† nM. For the same molecule, the PGF2α [3, 5] was 15 nM, the TXB2 [3, 5] was 1.3 nM and the 5-iPF2α [3, 6] was < 1.0 nM. The “8(9)-EpETE” value [3, 6] was 2.4^* nM, the “12,13-DiHODE” value [3, 6] was < 2.0 nM and the “13,14-dihydro-15-keto-PGE1” value [3, 6] was < 0.1 nM. For the same molecule, the 20-HETE [3, 6] was < 2.7 nM, the PGD1 [3, 6] was < 0.50 nM and the PGF2α ([3]; kidney tissue 24 h after LPS treatment, LPS +, mean, second listing of PGF2α (r9)) was 15 nM. The “kidney 13,14-dihydro-15-keto-PGE1 level” value [3, 7] was “<LOQ” and the “kidney 13,14-dihydro-15-keto-PGE2α level” value [3, 7] was “lowered”.
